This note sets out measurements from article PMC8602566 (Frontiers in Oncology, 2021).

A word on the IC50: it is the concentration that gives 50% inhibition. By microsomal CLint is commonly meant a measure of how fast metabolising enzymes remove a compound, apart from limits set by blood flow. A lower microsomal CLint goes with slow turnover.

Data set [1] concerns Human lung cancer cell line A549. In words: MTT cell viability assay, A549. The class given is cell-based. Conditions: A549, 72 h, read-out: IC50 antiproliferative activity A549. On the procedure:
(§1) Cell viability was measured using the 3-(4,5-dimethylthiazol-2-yl)-2,5-diphenyltetrazolium bromide (MTT) assay and was expressed as a ratio to the absorbance value at 570 nm of the control cells.
For orientation: Tetrazolium assays rely on reduction of a dye to a coloured formazan, in cell work by metabolically active cells.

In data set [2] the test system is Human umbilical vein endothelial cells HUVEC. In words: MTT cell viability assay, HUVEC. The data set is classed as cell-based. Conditions: Homo sapiens, HUVEC, 72 h, read-out: IC50 HUVEC. On the procedure: as §1
Data set [3] relates to Human leukemia cell line K562. In words: MTT cell viability assay, K562. The class given is cell-based. Conditions: K562, 72 h, read-out: IC50 antiproliferative activity K562. How it is done:
as §1

The nature of data set [4]: Hepatic microsome stability assay, mice. Conditions: mouse liver microsomes, NADPH, 37°C, pH 7.4. The class given is in vitro ADME. How it is done: (§2) Metabolic stability was assessed in the presence of human, mouse, and rat liver microsomes (XenoTech, Lenexa, KS, USA). All liquid dispenses and transfer steps were performed with the Freedom Evo automated liquid handler (Tecan US). Compound stock solutions were initially prepared in 100% DMSO and subsequently diluted in acetonitrile for the assay. The pH of the reactions was kept at 7.4 with potassium phosphate buffer. The reaction wells were prepared by adding microsomes to a well and allowed to warm to 37°C. Then, compound was added to each well. The reactions were […] by adding cofactor reduced nicotinamide adenine dinucleotide phosphate (NADPH) to the reaction well containing microsomes and compounds. Negative controls received buffer only. Immediately after reactions started, 0-min aliquots were promptly collected and mixed in a separate well with ice cold acetonitrile to quench the reactions. The remainder of the reaction volume was incubated at 37°C with shaking. An additional aliquot was collected at 60 min after the start of the reaction and promptly quenched with ice cold acetonitrile. Samples were vortexed and centrifuged at 3,500 rpm for 10 min. The amount of compound in the supernatant was determined by liquid chromatography–tandem mass spectrometry (LC/MS/MS) (Thermo Fischer Scientific, San Jose, CA, USA), and the percent of parent compound remaining after 60 min was calculated. Results are the mean of each reaction triplicate, normalized to the internal standard, and expressed as the percent of compound remaining after the incubation time.
(§3) Structures that are active in vitro may not be potent in vivo due to their susceptibility to metabolism in the body. We then thoroughly examined the liver microsomal metabolic stability of DMC-HA across three different species (Table 3). […] In addition, the half-life of DMC-HA in human microsome is generally two to three times longer than those in mice and rats. Collectively, the in vitro liver microsomal stability of DMC-HA is favorable, guaranteeing its further in vivo studies.

Data set [5] has as its system Human glioma cell line SHG44. In words: MTT cell viability assay, SHG44. The data set is classed as cell-based. Conditions: SHG-44, 72 h, read-out: IC50 antiproliferative activity SHG44. On the procedure:
as §1

The next data set concerns all eight cell lines. In words: Antiproliferative activity, panel of eight cancer cell lines (summary). The class given is cell-based. Conditions: Homo sapiens, read-out: IC50 values against all eight cell lines. How it is done: Cells (5 × 10^4) were seeded into 96-well plates and exposed to vehicle (PBS) or different concentrations of compounds for 72 h. Cell viability was measured using the 3-(4,5-dimethylthiazol-2-yl)-2,5-diphenyltetrazolium bromide (MTT) assay and was expressed as a ratio to the absorbance value at 570 nm of the control cells.
As DMC-HA was identified as a potent novel inhibitor for HDACs, its antiproliferative activities on a panel of cancer cell lines and normal cells were evaluated, including four glioma cell lines, and the results are shown in Table 2. Vorinostat and curcumin were also tested as positive controls. […].

The test system of data set [6] is Human glioblastoma cell line U251. In words: MTT cell viability assay, U251. The class given is cell-based. Conditions: U-251, 72 h, read-out: IC50 antiproliferative activity U251. How it is done:
as §1

Data set [7] can be described thus: Hepatic microsome stability assay, rat. Conditions: rat liver microsomes, NADPH, 37°C, pH 7.4. The data set is classed as in vitro ADME. How it is done:
as §2, §3
Background: Liver microsomes are a subcellular fraction often used to study metabolism.

For data set [8], the system named is Human glioblastoma cell line U87. In words: MTT cell viability assay, U87. The data set is classed as cell-based. Conditions: 72 h, read-out: IC50 antiproliferative activity U87. On the procedure: Human GBM U87 cell line was purchased from the American Type Culture Collection (ATCC). Cells were cultured in Dulbecco’s modified Eagle’s medium (DMEM) supplemented with 10% fetal bovine serum (FBS) and maintained in a 37°C, 5% CO2 incubator. After cells were routinely passaged at 2- to 3-day intervals, experiments were carried out when the cells entered exponential growth phase.
as §1

A short description of data set [9]: Hepatic microsome stability assay, human. The data set is classed as in vitro ADME. Conditions: human liver microsomes, NADPH, 37°C, pH 7.4. On the procedure: as §2, §3
The test system of data set [10] is Human glioma cell line LN229. In words: MTT cell viability assay, LN229. The class given is cell-based. Conditions: LN-229, 72 h, read-out: IC50 antiproliferative activity LN229. On the procedure:
as §1

Data set [11] has as its system Human liver cancer cell line HepG2. In words: MTT cell viability assay, HepG2. Conditions: HepG2, 72 h, read-out: IC50 antiproliferative activity HepG2. The class given is cell-based. How it is done:
as §1

Data set [12] concerns Human colon carcinoma cell line SW-620. In words: MTT cell viability assay, SW-620. The data set is classed as cell-based. Conditions: SW-620, 72 h, read-out: IC50 antiproliferative activity SW-620. How it is done:
as §1

For another data set, the system named is U87 tumor xenograft. Conditions: nude mice, 20 mg/kg once daily. An excerpt:
Six-week-old BALB/c nude mice were purchased from Shanghai Experimental Animal Center of Chinese Academy of Science (Shanghai, China). All animal protocols were implemented according to the guidelines of the Association for Assessment and Accreditation of Laboratory Animal Care. U87 cells (3 × 10^6) were subcutaneously implanted into the right flank of mice. After 6 days of tumor growth, tumors grew to approximately 100 mm^3, and mice were randomly divided into three groups with nine animals in each group. […] The control group was intraperitoneally injected an equal volume of DMSO. Body weights and tumor volumes were measured every 2 days. After treatment, all of the mice were sacrificed, and the tumors were harvested, weighted, and photographed. The tumor volume was calculated according the formula: tumor volume = (length × width^2)/2.
U87 cells were subcutaneously inoculated into the right flank of mice.

Data set [13] relates to acetylated histone H3 in U87 cells. In words: Western blot analysis for H3-histone acetylation. The data set is classed as cell-based, Human. Conditions: various concentrations, 24 h. How it is done:
U87 cells (5 × 10^5 cells/ml) in six-well plates were incubated with DMC-HA and lysed in radioimmunoprecipitation assay (RIPA) buffer containing protease and phosphatase inhibitors. Protein contents in the lysates were determined by Bradford’s assay, and 50 μg was separated by SDS polyacrylamide gel electrophoresis (SDS-PAGE) electrophoresis. Proteins were transferred to membranes and probed with human anti-acetylated H3 and anti-β actin antibodies as a loading control. Membranes were then labeled with the appropriate horseradish peroxidase (HRP)-conjugated immunoglobulin G (IgG), and protein bands were visualized using enhanced chemiluminescence. (Bio-Rad, Hercules, CA, USA).
Next, DMC-HA-induced acetylation of histone H3 in living cells was analyzed using Western blot method.
For orientation: In western blotting, separated proteins are transferred to a membrane and probed.

The target in the next data set is SIRT1 (Homo sapiens, UniProt Q96EB6). In words: HDACs inhibition assay, SIRT1.
SIRT1, sequence (Q96EB6 whole entry): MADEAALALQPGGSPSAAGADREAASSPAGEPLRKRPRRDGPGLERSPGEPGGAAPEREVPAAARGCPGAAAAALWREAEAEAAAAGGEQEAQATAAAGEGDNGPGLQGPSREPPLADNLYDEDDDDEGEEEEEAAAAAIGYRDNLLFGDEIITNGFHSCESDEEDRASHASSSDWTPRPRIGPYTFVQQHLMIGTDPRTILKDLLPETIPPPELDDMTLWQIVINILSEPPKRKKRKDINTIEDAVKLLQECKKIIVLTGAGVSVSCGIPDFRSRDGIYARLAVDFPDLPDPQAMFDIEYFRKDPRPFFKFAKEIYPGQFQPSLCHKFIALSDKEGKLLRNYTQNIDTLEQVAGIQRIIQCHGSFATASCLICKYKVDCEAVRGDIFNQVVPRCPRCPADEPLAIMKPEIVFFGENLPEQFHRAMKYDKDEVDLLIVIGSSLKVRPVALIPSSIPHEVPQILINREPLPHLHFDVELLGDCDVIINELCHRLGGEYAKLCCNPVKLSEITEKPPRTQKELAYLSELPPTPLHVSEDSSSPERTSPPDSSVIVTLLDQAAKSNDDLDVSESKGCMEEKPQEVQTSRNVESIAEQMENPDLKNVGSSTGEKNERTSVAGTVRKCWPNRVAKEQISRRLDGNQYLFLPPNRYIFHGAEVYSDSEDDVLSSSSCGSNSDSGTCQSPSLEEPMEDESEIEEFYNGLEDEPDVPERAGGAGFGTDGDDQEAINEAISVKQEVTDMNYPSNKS

Method for SIRT1: The inhibition assays for HDACs were carried out according to standard protocols. […] The reaction was stopped by the addition of 45 μl of 100 mM HEPES (pH 7.5) and 0.08% sodium dodecyl sulfate (SDS). The substrate and the product were then separated electrophoretically using a LabChip 3000 system (Caliper Life Sciences, Hopkinton, MA) with blue laser excitation and green fluorescence detection.

For `COc1cc(/C=C/C(=O)CC(=O)/C=C/c2ccc(O)c(OC)c2)ccc1O` [Curcumin, reference compound], the IC50 in data set [1] is 32.9 ± 3.99 µM; in data set [2], 58.5 ± 7.92 µM; in data set [3], 16.4 ± 1.23 µM; in data set [5], 24.6 ± 4.52 µM; with all eight cell lines, 16.4 to 49.2 µM; in data set [6], 27.6 ± 3.11 µM. Besides, the IC50 in data set [8] came to 31.9 ± 2.9 µM; in data set [10], 21.9 ± 4.65 µM; in [11], 18.3 ± 3.21 µM; in [12], 49.2 ± 7.42 µM. Moreover, the microsomal CLint stood at 92.9 µL/min/mg in [4], 138 µL/min/mg in data set [7] and 82 µL/min/mg in [9]. For the same compound, the half-life in [4] (read-out: Mice Liver Microsomal Stability T1/2) was found to be 15.3 min; in data set [7] (read-out: Rat Liver Microsomal Stability T1/2), 10.4 min; in data set [9] (read-out: Human Liver Microsomal Stability T1/2), 17.2 min.

Take `O=C(CCCCCCC(=O)Nc1ccccc1)NO` [Vorinostat, suberoylanilide hydroxamic acid, reference compound]: in the data set with U87 tumor xenograft, the “effects on the body weight” value is recorded as “no effects on the body weight” and the “toxicity during the administration period” value is recorded as “no observable toxicity”. Moreover, in data set [13], the “acetylation of histone H3, dose dependence” value is listed as “dose dependently increased the acetylation of histone H3”. On SIRT1, this compound had an IC50 of over 10 µM.
